Measured values taken from patent publication US10441620B2, “Method for protection of bladder from damage” (Wellstrong Biotech Co., Ltd., priority 2016, dated 2019).

Assay: CUPRAC assay for total antioxidants
Settings: absorbance at 450 nm
Protocol: The CUPRAC assay was utilized to determine the total antioxidant capacity. This assay relies on the electron donating capabilities of antioxidants to reduce the copper ion. The CUPRAC working solution consisted of 10 mM copper (II) chloride dihydrate, 1M ammonium acetate, and 7.5 mM neocuproine. 0.15 mL of the above three solutions were added to 0.15 mL of each sample and allowed to react for 30 minutes at room temperature, after which the absorbance was read at 450 nm in a Hitachi U-2001 spectrophotometer.

SMILES: O=C1O[C@H]([C@@H](O)CO)C(O)=C1O [ascorbic acid]
- total antioxidant activity (antioxidant value of standard curve): 27±1.7 mg Ascorbic acid per mOD optical density
